According to patent US8178506B2, “Oligomeric compounds and compositions for use in modulation of small non-coding RNAs” (Regulus Therapeutics Inc., priority 2003, dated 2012):
In the oligonucleotide strings, read from the 5' end, every base follows the letter of its sugar. An asterisk marks phosphorothioate; unmarked linkages are phosphodiester. Other units and linkages are bracketed, terminal groups are in braces. A string of capitals states the bases alone. e = 2'-O-(2-methoxyethyl) (MOE); [5mC] = 5-methylcytosine

Experiments:
Assay type in all cases: cell-based, human
aP2 = aP2 mRNA expression in adipocytes (real-time PCR); conditions: differentiating adipocytes transfected with oligomeric compound; Table 75
PEPCK-c = PEPCK-c mRNA expression in HepG2 cells; conditions: for PEPCKc mRNA: HepG2 cells, Experiment 1, basal (no insulin), four hours, UTC = 100; for PEPCKc mRNA expression: Experiment 2, insulin treated: HepG2 cells transfected with oligomeric compound, 1 nM insulin for four hours, UTC + 1 nM insulin = 100
follistatin = assay: Follistatin mRNA expression in HepG2 cells; conditions: for Follistatin mRNA: HepG2 cells, Experiment 1, basal (no insulin), four hours, UTC = 100; for Follistatin mRNA expression: Experiment 2, insulin treated: HepG2 cells transfected with oligomeric compound, 1 nM insulin for four hours, UTC + 1 nM insulin = 100
PPARγ = PPARγ mRNA expression in adipocytes (real-time PCR); conditions: differentiating adipocytes transfected with oligomeric compound; Table 75

## 327873 (antisense e[5mC]*eT*eA*e[5mC]*e[5mC]*eA*eT*eA*eG*eG*eG*eT*eA*eA*eA*eA*e[5mC]*e[5mC]*eA*e[5mC]*eT) [compound 327873]
aP2
  aP2 mRNA: 113 percentage of untreated control (UTC)
PEPCK-c
  PEPCKc mRNA: 72
follistatin
  Follistatin mRNA: 97
PPARγ
  PPAR gamma mRNA: 104 percentage of untreated control (UTC)

## 327935 (antisense e[5mC]*eT*eA*e[5mC]*e[5mC]*eT*eG*e[5mC]*eA*e[5mC]*eT*eA*eT*eA*eA*eG*e[5mC]*eA*e[5mC]*eT*eT*eT*eA) [compound 327935]
aP2
  aP2 mRNA: 60 percentage of untreated control (UTC)
PPARγ
  PPAR gamma mRNA: 67 percentage of untreated control (UTC)

## 327936 (antisense eA*e[5mC]*eA*eG*e[5mC]*eT*eG*eG*eT*eT*eG*eA*eA*eG*eG*eG*eG*eA*e[5mC]*e[5mC]*eA*eA) [compound 327936]
aP2
  aP2 mRNA: 40 percentage of untreated control (UTC)
PPARγ
  PPAR gamma mRNA: 47 percentage of untreated control (UTC)

## 327940 (antisense eG*eA*eA*e[5mC]*eA*eG*eG*eT*eA*eG*eT*e[5mC]*eT*eG*eA*eA*e[5mC]*eA*e[5mC]*eT*eG*eG*eG) [compound 327940]
aP2
  aP2 mRNA: 62 percentage of untreated control (UTC)
PPARγ
  PPAR gamma mRNA: 64 percentage of untreated control (UTC)

## 327944 (antisense eA*eA*eA*eG*eT*eG*eT*e[5mC]*eA*eG*eA*eT*eA*e[5mC]*eG*eG*eT*eG*eT*eG*eG) [compound 327944]
aP2
  aP2 mRNA: 71 percentage of untreated control (UTC)
PPARγ
  PPAR gamma mRNA: 64 percentage of untreated control (UTC)

## 327945 (antisense e[5mC]*eT*eG*eT*eT*e[5mC]*e[5mC]*eT*eG*e[5mC]*eT*eG*eA*eA*e[5mC]*eT*eG*eA*eG*e[5mC]*e[5mC]*eA) [compound 327945]
aP2
  aP2 mRNA: 43 percentage of untreated control (UTC)
PPARγ
  PPAR gamma mRNA: 51 percentage of untreated control (UTC)

## 327946 (antisense eA*eG*eG*e[5mC]*eG*eA*eA*eG*eG*eA*eT*eG*eA*e[5mC]*eA*eA*eA*eG*eG*eG*eA*eA) [compound 327946]
aP2
  aP2 mRNA: 73 percentage of untreated control (UTC)
PEPCK-c
  PEPCKc mRNA expression: 99
  PEPCKc mRNA: 90
follistatin
  Follistatin mRNA expression: 109
  Follistatin mRNA: 103
PPARγ
  PPAR gamma mRNA: 81 percentage of untreated control (UTC)

## 327949 (antisense e[5mC]*eA*e[5mC]*eA*eA*eA*eT*eT*e[5mC]*eG*eG*eA*eT*e[5mC]*eT*eA*e[5mC]*eA*eG*eG*eG*eT*eA) [compound 327949]
aP2
  aP2 mRNA: 52 percentage of untreated control (UTC)
PEPCK-c
  PEPCKc mRNA expression: 101
  PEPCKc mRNA: 81
follistatin
  Follistatin mRNA expression: 111
  Follistatin mRNA: 112
PPARγ
  PPAR gamma mRNA: 54 percentage of untreated control (UTC)

## 327950 (antisense eT*e[5mC]*eA*eG*eT*eT*eT*eT*eG*e[5mC]*eA*eT*eA*eG*eA*eT*eT*eT*eG*e[5mC]*eA*e[5mC]*eA) [compound 327950]
aP2
  aP2 mRNA: 95 percentage of untreated control (UTC)
PEPCK-c
  PEPCKc mRNA expression: 82
  PEPCKc mRNA: 65
follistatin
  Follistatin mRNA expression: 89
  Follistatin mRNA: 83
PPARγ
  PPAR gamma mRNA: 93 percentage of untreated control (UTC)

## 327952 (antisense e[5mC]*eT*eA*e[5mC]*eG*e[5mC]*eG*eT*eA*eT*eT*e[5mC]*eT*eT*eA*eA*eG*e[5mC]*eA*eA*eT*eA) [compound 327952]
aP2
  aP2 mRNA: 56 percentage of untreated control (UTC)
PEPCK-c
  PEPCKc mRNA expression: 85
  PEPCKc mRNA: 70
follistatin
  Follistatin mRNA expression: 100
  Follistatin mRNA: 93
PPARγ
  PPAR gamma mRNA: 84 percentage of untreated control (UTC)

## 327957 (antisense e[5mC]*eA*e[5mC]*eA*eA*eG*eT*eT*e[5mC]*eG*eG*eA*eT*e[5mC]*eT*eA*e[5mC]*eG*eG*eG*eT*eT) [compound 327957]
aP2
  aP2 mRNA: 23 percentage of untreated control (UTC)
PEPCK-c
  PEPCKc mRNA expression: 88
  PEPCKc mRNA: 59
follistatin
  Follistatin mRNA expression: 73
  Follistatin mRNA: 69
PPARγ
  PPAR gamma mRNA: 68 percentage of untreated control (UTC)

## 327958 (antisense e[5mC]*e[5mC]*eG*eG*e[5mC]*eT*eG*e[5mC]*eA*eA*e[5mC]*eA*e[5mC]*eA*eA*eG*eA*e[5mC]*eA*e[5mC]*eG*eA) [compound 327958]
aP2
  aP2 mRNA: 10 percentage of untreated control (UTC)
PEPCK-c
  PEPCKc mRNA expression: 106
  PEPCKc mRNA: 73
follistatin
  Follistatin mRNA expression: 112
  Follistatin mRNA: 91
PPARγ
  PPAR gamma mRNA: 55 percentage of untreated control (UTC)

## 327959 (antisense e[5mC]*eA*eG*e[5mC]*e[5mC]*eG*e[5mC]*eT*eG*eT*e[5mC]*eA*e[5mC]*eA*e[5mC]*eG*e[5mC]*eA*e[5mC]*eA*eG) [compound 327959]
aP2
  aP2 mRNA: 24 percentage of untreated control (UTC)
PEPCK-c
  PEPCKc mRNA expression: 156
  PEPCKc mRNA: 139
follistatin
  Follistatin mRNA expression: 92
  Follistatin mRNA: 98
PPARγ
  PPAR gamma mRNA: 65 percentage of untreated control (UTC)

## 327961 (antisense eG*eG*eG*eG*eT*eA*eT*eT*eT*eG*eA*e[5mC]*eA*eA*eA*e[5mC]*eT*eG*eA*e[5mC]*eA) [compound 327961]
aP2
  aP2 mRNA: 91 percentage of untreated control (UTC)
PEPCK-c
  PEPCKc mRNA expression: 126
  PEPCKc mRNA: 98
follistatin
  Follistatin mRNA expression: 128
  Follistatin mRNA: 113
PPARγ
  PPAR gamma mRNA: 95 percentage of untreated control (UTC)

## 327963 (antisense eA*eA*e[5mC]*e[5mC]*eT*eA*eT*e[5mC]*e[5mC]*eT*eG*eA*eA*eT*eT*eA*e[5mC]*eT*eT*eG*eA*eA) [compound 327963]
aP2
  aP2 mRNA: 75 percentage of untreated control (UTC)
PEPCK-c
  PEPCKc mRNA expression: 94
  PEPCKc mRNA: 92
follistatin
  Follistatin mRNA expression: 95
  Follistatin mRNA: 101
PPARγ
  PPAR gamma mRNA: 91 percentage of untreated control (UTC)

## 327964 (antisense e[5mC]*e[5mC]*eA*eA*eG*eT*eT*e[5mC]*eT*eG*eT*e[5mC]*eA*eT*eG*e[5mC]*eA*e[5mC]*eT*eG*eA) [compound 327964]
aP2
  aP2 mRNA: 96 percentage of untreated control (UTC)
PEPCK-c
  PEPCKc mRNA expression: 122
  PEPCKc mRNA: 74
follistatin
  Follistatin mRNA expression: 114
  Follistatin mRNA: 97
PPARγ
  PPAR gamma mRNA: 93 percentage of untreated control (UTC)

## 327965 (antisense eA*eT*e[5mC]*eA*e[5mC]*eA*eT*eA*eG*eG*eA*eA*eT*eA*eA*eA*eA*eA*eG*e[5mC]*e[5mC]*eA*eT*eA) [compound 327965]
aP2
  aP2 mRNA: 67 percentage of untreated control (UTC)
PEPCK-c
  PEPCKc mRNA expression: 64
  PEPCKc mRNA: 63
follistatin
  Follistatin mRNA expression: 79
  Follistatin mRNA: 95
PPARγ
  PPAR gamma mRNA: 91 percentage of untreated control (UTC)

## 327971 (antisense eG*eG*eA*eA*eA*eT*e[5mC]*e[5mC]*e[5mC]*eT*eG*eG*e[5mC]*eA*eA*eT*eG*eT*eG*eA*eT) [compound 327971]
aP2
  aP2 mRNA: 49 percentage of untreated control (UTC)
PPARγ
  PPAR gamma mRNA: 69 percentage of untreated control (UTC)

## CTAGTGGTCCTAAACATTTCAC (chemistry not given here) [ISIS 327878, uniform 2′-MOE PS; targets mir-203]
PEPCK-c; HepG2, 1 nM insulin, 100 nM
  reduction of PEPCK-c mRNA expression: 71%
PEPCK-c; HepG2, basal (no insulin), 100 nM
  decrease in PEPCK-c mRNA: 55%
